Experimental findings from patent US8927500B2, “Peptidomimetic macrocycles” (Aileron Therapeutics, Inc., priority 2012, dated 2015) are described below.

One assay relates to SJSA-1 cells. In words: Cell lysis by peptidomimetic macrocycles (LDH release). Format: cell-based. Particulars: 1 h at 37C. On the technique in general: LDH in the medium is a marker of cell lysis.
A further assay concerns the target T1, MDMX (Homo sapiens, UniProt O15151).
T1 sequence (O15151 1-125): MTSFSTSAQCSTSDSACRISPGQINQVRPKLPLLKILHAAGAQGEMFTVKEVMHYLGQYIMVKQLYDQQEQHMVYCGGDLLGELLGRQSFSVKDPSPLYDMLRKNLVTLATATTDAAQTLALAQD
As to the kind of experiment: Competitive fluorescence polarization assay for MDMX. Format: binding. The settings on record: competitive FP assay; for IC50: read-out: IC50 (MDMX); for Ki: read-out: Ki (MDMX). On the technique in general: Polarisation of emitted light reports the rotation of a fluorescent probe.

Another assay concerns the target MDM2 (Homo sapiens, UniProt Q00987). In words: Competitive fluorescence polarization assay for MDM2. It is filed as binding. The settings on record: competitive FP assay, MDM2; for IC50: read-out: IC50 (MDM2); for Ki: read-out: Ki (MDM2).
The test system of a further assay is Caspase 3. As to the kind of experiment: Caspase 3 detection assay in SJSA1 cells. It is filed as cell-based. Particulars: 48 h, Caspase 3 activation over DMSO-treated cells; for caspase 0.3 uM: 0.3 uM peptide; for caspase 3 uM: 3 uM peptide; for caspase 10 uM: 10 uM peptide; for caspase 30 uM: 30 uM peptide.

Sequence of MDM2 (Q00987 1-125): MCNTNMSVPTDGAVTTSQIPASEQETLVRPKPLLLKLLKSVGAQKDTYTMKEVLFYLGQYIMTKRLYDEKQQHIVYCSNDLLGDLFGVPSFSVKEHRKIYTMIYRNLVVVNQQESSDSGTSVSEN
Procedure for MDMX: Dilute MDMX (In-house, 40 kD) into FP buffer (High salt buffer-200 mM Nacl, 5 mM CHAPS, pH 7.5.) to make 300 nM (2×) working stock solution. • 2. […] Dilute 1 mM (in 100% DMSO) of FAM labeled linear peptide with DMSO to 100 μM (dilution 1:10). Then, dilute from 100 μM to 10 μM with water (dilution 1:10) and then dilute with FP buffer from 10 μM to 40 nM (dilution 1:250). This is the working solution which will be a 10 nM concentration in well (dilution 1:4). Keep the diluted FAM labeled peptide in the dark until use. • 4. […] Dilute 10 mM (in 100% DMSO) with DMSO to 5 mM (dilution 1:2). Then, dilute from 5 mM to 500 μM with H2O (dilution 1:10) and then dilute with FP buffer from 500 μM to 20 μM (dilution 1:25). […] Transfer 10 μl of serial diluted unlabeled peptides to each well which is filled with 20 μl of 300 nM of protein. • 7. Add 10 μl of 10 nM (4×) of FAM labeled peptide into each well and incubate for 3 hr to read.

Take `CC(=O)N[C@@H](CC(C)C)C(=O)N[C@H](C(=O)N[C@@H](Cc1ccccc1)C(=O)N[C@]1(C)CCCCCCC=CCCC[C@@](C)(C(=O)N[C@@H](CO)C(=O)N[C@@H](Cc2c[nH]c3ccccc23)C(=O)N[C@@H](C)C(N)=O)NC(=O)[C@H](CC(C)C)NC(=O)[C@H](CCC(N)=O)NC(=O)[C@H](C)NC(=O)[C@H](Cc2c[nH]c3ccccc23)NC(=O)[C@H](Cc2ccc(O)cc2)NC(=O)[C@H](C)NC1=O)[C@@H](C)O` (single isomer, unassigned) [compound 120]: in the assay on SJSA-1 cells, the “6.25 uM % Lysed cells (1 h LDH)” value is given as 0%, the “25 uM % Lysed cells (1 h LDH)” value was 0% and the “50 uM % Lysed cells (1 h LDH)” value is recorded as 6%. Also, at MDMX, the IC50 fell in the range of 100 to 1000 nM and the Ki was 10 to 100 nM. Besides, at MDM2, the IC50 was 10 to 100 nM and the Ki was less than 10 nM. Further, in the assay on Caspase 3, the “caspase 0.3 uM” value worked out at 2, the “caspase 3 uM” value is 11, the “caspase 10 uM” value was 20 and the “caspase 30 uM” value is 30.
Consider `CC(=O)N[C@@H](CC(C)C)C(=O)N[C@H](C(=O)N[C@@H](Cc1ccccc1)C(=O)N[C@]1(C)CCCCCCC=CCCC[C@@](C)(C(=O)N[C@@H](CO)C(=O)N[C@H](C(=O)N[C@@H](C)C(N)=O)C(C)C)NC(=O)[C@H](CC(C)C)NC(=O)[C@H](CCC(N)=O)NC(=O)[C@H](C)NC(=O)[C@H](Cc2c[nH]c3ccccc23)NC(=O)[C@H](Cc2ccc(O)cc2)NC(=O)[C@H](C(C)C)NC1=O)[C@@H](C)O` (single isomer, unassigned) [compound 139], for which, in the assay with SJSA-1 cells, the “6.25 uM % Lysed cells (1 h LDH)” value is given as −2%, the “25 uM % Lysed cells (1 h LDH)” value is −1% and the “50 uM % Lysed cells (1 h LDH)” value is −1%. Also, at MDMX, the IC50 fell in the range of 100 to 1000 nM and the Ki is 10 to 100 nM. Also, at MDM2, the IC50 was less than 10 nM and the Ki was less than 10 nM. Further, in the assay on Caspase 3, the “caspase 0.3 uM” value was 1, the “caspase 3 uM” value was 2, the “caspase 10 uM” value is on record as 9 and the “caspase 30 uM” value amounted to 18.
In the case of `CC(=O)N[C@@H](CC(C)C)C(=O)N[C@H](C(=O)N[C@@H](Cc1ccccc1)C(=O)N[C@]1(C)CCCCCCC=CCCC[C@@](C)(C(=O)N[C@@H](CO)C(=O)N[C@H](C(=O)N[C@@H](CO)C(N)=O)C(C)C)NC(=O)[C@H](CC(C)C)NC(=O)[C@H](CCC(N)=O)NC(=O)[C@H](C)NC(=O)[C@H](Cc2c[nH]c3ccccc23)NC(=O)[C@H](Cc2ccc(O)cc2)NC(=O)[C@H](C(C)C)NC1=O)[C@@H](C)O` (single isomer, unassigned) [compound 142], in the assay on SJSA-1 cells, the “6.25 uM % Lysed cells (1 h LDH)” value was 1%, the “25 uM % Lysed cells (1 h LDH)” value is listed as 1% and the “50 uM % Lysed cells (1 h LDH)” value worked out at 3%. In addition, at MDMX, the IC50 is 10 to 100 nM and the Ki fell in the range of 10 to 100 nM. On MDM2, the IC50 was less than 10 nM and the Ki was less than 10 nM. In addition, in the assay on Caspase 3, the “caspase 0.3 uM” value was 1, the “caspase 3 uM” value turned out to be 2, the “caspase 10 uM” value stood at 15 and the “caspase 30 uM” value is given as 20.
As for `CC(=O)N[C@@H](CC(C)C)C(=O)N[C@H](C(=O)N[C@@H](Cc1ccccc1)C(=O)N[C@]1(C)CCCCCCC=CCCC[C@@](C)(C(=O)N[C@@H](CO)C(=O)N[C@@H](C)C(=O)N[C@@H](CO)C(N)=O)NC(=O)[C@H](CC(C)C)NC(=O)[C@H](CCC(N)=O)NC(=O)[C@H](C)NC(=O)[C@H](Cc2c[nH]c3ccccc23)NC(=O)[C@H](Cc2ccc(O)cc2)NC(=O)[C@H](C(C)C)NC1=O)[C@@H](C)O` (single isomer, unassigned) [compound 144], in the assay with SJSA-1 cells, the “6.25 uM % Lysed cells (1 h LDH)” value is listed as 1%, the “25 uM % Lysed cells (1 h LDH)” value is on record as −1% and the “50 uM % Lysed cells (1 h LDH)” value is given as 2%. Moreover, at MDMX, the IC50 lay within 100 to 1000 nM and the Ki fell in the range of 10 to 100 nM. Moreover, at MDM2, the IC50 is less than 10 nM and the inhibition constant Ki is less than 10 nM. Also, in the assay with Caspase 3, the “caspase 0.3 uM” value amounted to 1, the “caspase 3 uM” value turned out to be 4, the “caspase 10 uM” value stood at 10 and the “caspase 30 uM” value turned out to be 16.
Regarding `CC(=O)N[C@@H](CC(C)C)C(=O)N[C@H](C(=O)N[C@@H](Cc1ccc(F)c(F)c1)C(=O)N[C@]1(C)CCCCCCC=CCCC[C@@](C)(C(=O)N[C@@H](CO)C(=O)N[C@@H](C)C(=O)N[C@@H](C)C(N)=O)NC(=O)[C@H](CC(C)C)NC(=O)[C@H](CCC(N)=O)NC(=O)[C@H](C)NC(=O)[C@H](Cc2c[nH]c3ccccc23)NC(=O)[C@H](Cc2ccc(O)cc2)NC(=O)[C@H](CCC(=O)O)NC1=O)[C@@H](C)O` (single isomer, unassigned) [compound 158], in the assay on SJSA-1 cells, the “6.25 uM % Lysed cells (1 h LDH)” value is on record as 0% and the “25 uM % Lysed cells (1 h LDH)” value is −2%. Also, on MDMX, the IC50 was 100 to 1000 nM and the Ki was in the range of 10 to 100 nM. Further, on MDM2, the IC50 is less than 10 nM and the Ki is less than 10 nM. Also, in the assay with Caspase 3, the “caspase 0.3 uM” value came out at 1, the “caspase 10 uM” value amounted to 5 and the “caspase 30 uM” value was 16.33.
In the case of `CC[C@H](C)[C@H](NC(=O)[C@H](C)NC(=O)[C@H](C)NC(=O)[C@]1(C)CCCC=CCCCCCC[C@@](C)(NC(=O)[C@H](Cc2ccccc2)NC(=O)[C@@H](NC(=O)[C@H](CCC(=O)O)NC(C)=O)[C@@H](C)O)C(=O)N[C@@H](CCC(=O)O)C(=O)N[C@@H](Cc2c[nH]cn2)C(=O)N[C@@H](Cc2c[nH]c3ccccc23)C(=O)N[C@@H](C)C(=O)N[C@@H](CCC(N)=O)C(=O)N[C@@H](CC(C)C)C(=O)N1)C(=O)N[C@H](C)C(N)=O` (single isomer, unassigned) [compound 175], in the assay with SJSA-1 cells, the “6.25 uM % Lysed cells (1 h LDH)” value was found to be 3%, the “25 uM % Lysed cells (1 h LDH)” value is 1% and the “50 uM % Lysed cells (1 h LDH)” value is on record as 0%. On MDMX, the IC50 lay in the range of 100 to 1000 nM and the Ki fell in the range of 10 to 100 nM. Further, at MDM2, the IC50 is less than 10 nM and the Ki was less than 10 nM. Moreover, in the assay on Caspase 3, the “caspase 0.3 uM” value came to 1, the “caspase 3 uM” value worked out at 5, the “caspase 10 uM” value came to 12 and the “caspase 30 uM” value came out at 21.
With `CC[C@H](C)[C@H](NC(=O)[C@H](C)NC(=O)[C@H](C)NC(=O)[C@]1(C)CCCC=CCCCCCC[C@@](C)(NC(=O)[C@H](Cc2ccccc2)NC(=O)[C@@H](NC(=O)[C@H](CC(C)C)NC(C)=O)[C@@H](C)O)C(=O)N[C@@H](C)C(=O)N[C@@H](Cc2ccc(O)cc2)C(=O)N[C@@H](Cc2c[nH]c3ccccc23)C(=O)N[C@@H](C)C(=O)N[C@@H](C)C(=O)N[C@@H](CC(C)C)C(=O)N1)C(=O)N[C@H](C)C(N)=O` (single isomer, unassigned) [compound 203], in the assay with SJSA-1 cells, the “6.25 uM % Lysed cells (1 h LDH)” value turned out to be 0%, the “25 uM % Lysed cells (1 h LDH)” value was 2% and the “50 uM % Lysed cells (1 h LDH)” value was determined as 2%. For the same compound, at MDMX, the IC50 was 100 to 1000 nM and the Ki fell in the range of 10 to 100 nM. At MDM2, the IC50 fell in the range of 10 to 100 nM and the Ki was less than 10 nM. Besides, in the assay on Caspase 3, the “caspase 0.3 uM” value is given as 1, the “caspase 3 uM” value is recorded as 3, the “caspase 10 uM” value came out at 12 and the “caspase 30 uM” value is on record as 10.
Regarding `CC(=O)N[C@@H](CC(C)C)C(=O)N[C@H](C(=O)N[C@@H](Cc1ccccc1)C(=O)N[C@]1(C)CCCCCCC=CCCC[C@@](C)(C(=O)N[C@@H](C)C(=O)N[C@@H](C)C(=O)N[C@@H](Cc2ccccc2)C(=O)N[C@H](C)C(N)=O)NC(=O)[C@H](CC(C)C)NC(=O)[C@H](CCC(N)=O)NC(=O)[C@H](C)NC(=O)[C@H](Cc2c[nH]c3ccccc23)NC(=O)[C@H](Cc2ccc(O)cc2)NC(=O)[C@H](CCC(=O)O)NC1=O)[C@@H](C)O` (single isomer, unassigned) [compound 218], in the assay with SJSA-1 cells, the “6.25 uM % Lysed cells (1 h LDH)” value was 0%, the “25 uM % Lysed cells (1 h LDH)” value is recorded as −4% and the “50 uM % Lysed cells (1 h LDH)” value came to 1%. On MDMX, the IC50 was 100 to 1000 nM and the Ki fell in the range of 10 to 100 nM. For the same compound, at MDM2, the IC50 is less than 10 nM and the Ki was less than 10 nM. In addition, in the assay with Caspase 3, the “caspase 0.3 uM” value was 1, the “caspase 3 uM” value was 2, the “caspase 10 uM” value is recorded as 8 and the “caspase 30 uM” value is 18.
For `CC(=O)N[C@@H](CC(C)C)C(=O)N[C@H](C(=O)N[C@@H](Cc1ccccc1)C(=O)N[C@]1(C)CCCCCCC=CCCC[C@@](C)(C(=O)N[C@@H](C)C(=O)N[C@@H](C)C(=O)N[C@H](C(=O)N[C@H](C)C(N)=O)C(C)C)NC(=O)[C@H](CC(C)C)NC(=O)[C@H](CCC(N)=O)NC(=O)[C@H](C)NC(=O)[C@H](Cc2c[nH]c3ccccc23)NC(=O)[C@H](Cc2ccc(O)cc2)NC(=O)[C@H](CCC(=O)O)NC1=O)[C@@H](C)O` (single isomer, unassigned) [compound 221], in the assay with SJSA-1 cells, the “6.25 uM % Lysed cells (1 h LDH)” value came to 3%, the “25 uM % Lysed cells (1 h LDH)” value is reported as 3% and the “50 uM % Lysed cells (1 h LDH)” value was found to be 11%. Besides, at MDMX, the IC50 lay within 10 to 100 nM and the Ki was in the range of 10 to 100 nM. At MDM2, the 50% inhibitory concentration (IC50) was less than 10 nM and the Ki is less than 10 nM. In addition, in the assay with Caspase 3, the “caspase 0.3 uM” value came to 1, the “caspase 3 uM” value was determined as 3, the “caspase 10 uM” value stood at 6 and the “caspase 30 uM” value stood at 12.

A word on the IC50: it is the point on the concentration scale where inhibition reaches its midpoint. As a reminder, the Ki is a measure of affinity in units of concentration, obtained from inhibition or displacement.
